The values that follow come from patent US20240228504A1, “SUBSTITUTED TRICYCLIC AMIDES, ANALOGUES THEREOF, AND METHODS USING SAME” (Arbutus Biopharma Corporation, priority 2020, published 2024).

The assay relates to HBV rcDNA in HepDE19 cells. The assay is described as follows: HepDE19 assay with bDNA quantitation of HBV rcDNA. Format: cell-based, hepatitis B virus. Particulars: Hepatitis B virus, HepDE19, HepDE19 assay, inhibition of rcDNA formation, bDNA quantitation; read-out: DE-19bDNA EC50.
One may read the EC50 as the concentration at which the effect is half-maximal. Consider `Cc1cccc2[nH]c(C(=O)N(C)[C@@H]3CCCc4[nH]c(=O)c5cc(F)ccc5c43)cc12` [Compound 491, (R)-N-(8-fluoro-6-oxo-1,2,3,4,5,6-hexahydrophenanthridin-1-y1)-N,4-dimethyl-1H-indole-2-carboxamide], for which the EC50 was determined as 0.02 µM.

`Cc1cc(F)cc2[nH]c(C(=O)N(C)[C@@H]3CCCc4[nH]c(=O)c5cc(F)ccc5c43)cc12` [Compound 492, (R)-6-fluoro-N-(8-fluoro-6-oxo-1,2,3,4,5,6-hexahydrophenanthridin-1-y1)-N,4-dimethyl-1H-indole-2-carboxamide]: the concentration for a half-maximal effect (EC50) amounted to 0.03 µM.

Consider `CN(C(=O)c1cc2c(C(F)F)cc(F)cc2[nH]1)[C@@H]1CCCc2[nH]c(=O)c3cc(F)ccc3c21` [Compound 493, (R)-4-(difluoromethyl)-6-fluoro-N-(8-fluoro-6-oxo-1,2,3,4,5,6-hexahydrophenanthridin-1-y1)-N-methyl-1H-indole-2-carboxamide], for which the EC50 was 0.01 µM.

Turning to `CN(Cc1cc2cc(F)c(F)cc2[nH]1)[C@@H]1COCc2[nH]c(=O)c3cc(F)c(F)cc3c21` [Compound 494, (S)-1-(((5,6-difluoro-1H-indol-2-yl)methyl)(methyl)amino)-8,9-difluoro-1,5-dihydro-2H-pyrano[3,4-c]isoquinolin-6(4H)-one], the half-maximal effective concentration (EC50) is 1.5 µM.

Consider `CN(C(=O)c1cc2cc(F)c(F)cc2[nH]1)[C@@H]1CCC(O)c2[nH]c(=O)c3cc(F)c(F)cc3c21` (stereo partly drawn) [Compound 503, N-((1R)-8,9-difluoro-4-hydroxy-6-oxo-1,2,3,4,5,6-hexahydrophenanthridin-1-yl)-5,6-difluoro-N-methyl-1H-indole-2-carboxamide], for which the EC50 came out at 0.02 µM.

Regarding `CN(C(=O)C(F)(F)c1ccccc1)[C@@H]1COCc2[nH]c(=O)c3cc(F)c(F)cc3c21` [Compound 512, (S)-N-(8,9-Difluoro-6-oxo-1,4,5,6-tetrahydro-2H-pyrano[3,4-c]isoquinolin-1-yl)-2,2-difluoro-N-methyl-2-phenylacetamide], the EC50 stood at 25 µM.

For the molecule `[2H][C@@]1(N(C(=O)c2cc3cc(F)c(F)cc3[nH]2)[13C]([2H])([2H])[2H])COCc2[nH]c(=O)c3cc(F)c(F)cc3c21` [Compound 514, (S)-N-(8,9-Difluoro-6-oxo-1,4,5,6-tetrahydro-2H-pyrano[3,4-c]isoquinolin-1-yl-1-d)-5,6-difluoro-N-(methyl-^13C-d3)-1H-indole-2-carboxamide], the EC50 amounted to 0.008 µM.

On to `[2H][C@@]1(N(C(=O)c2cc3cc(F)c(C(F)F)cc3[nH]2)[13C]([2H])([2H])[2H])COCc2[nH]c(=O)c3cc(F)c(F)cc3c21` [Compound 515, (S)-N-(8,9-Difluoro-6-oxo-1,4,5,6-tetrahydro-2H-pyrano[3,4-c]isoquinolin-1-yl-1-d)-6-(difluoromethyl)-5-fluoro-N-(methyl-^13C-d3)-1H-indole-2-carboxamide], for which the EC50 worked out at 0.01 µM.

As to `[2H][C@@]1(N(C(=O)c2cc3sc(Cl)cc3[nH]2)[13C]([2H])([2H])[2H])COCc2[nH]c(=O)c3cc(F)c(F)cc3c21` [Compound 516, (S)-2-Chloro-N-(8,9-difluoro-6-oxo-1,4,5,6-tetrahydro-2H-pyrano[3,4-c]isoquinolin-1-yl-1-d)-N-(methyl-^13C-d3)-4H-thieno[3,2-b]pyrrole-5-carboxamide], the EC50 turned out to be 0.01 µM.
